Laboratory results taken from publication PMC11096368, “Transcriptomic signature, bioactivity and safety of a non-hepatotoxic analgesic generating AM404 in the midbrain PAG region” (Scientific Reports, 2024).
“Also recorded” adds a separate entry of the source.

Assays:
[1] = system: Salmonella typhimurium strains TA98, TA100, TA1535, TA1537, and E. coli WP2 uvrA; assay: Ames bacterial reverse mutation assay; format: cell-based, Escherichia coli
Procedure: SRP-001 was tested to evaluate its mutagenic potential by measuring its ability to induce reverse mutations at selected loci of several strains of Salmonella typhimurium (S. typhimurium) and at the tryptophan locus of Escherichia coli (E. coli) strain WP2 uvrA in the presence and absence of an exogenous metabolic activation system (Bioreliance, Rockville, MD USA). Dimethyl sulfoxide (10% DMSO) was used as the vehicle. The dose levels tested in the preliminary toxicity assay were 6.67, 10.0, 33.3, 66.7, 100, 333, 667, 1000, 3333, and 5000 µg per plate. No precipitate was observed. […] The dose levels tested in the mutagenicity assay were 100, 333, 667, 1000, 3333, and 5000 µg per plate.

beagle dogs [2] = assay: Single oral dose (capsule) toxicity and pharmacokinetic study (non-GLP); format: in vivo; conditions: single dose 300 mg/kg
Procedure: SRP-001 was prepared into capsules for oral administration. Three experimentally non-naïve Beagle dogs, at least 7 months old and weighing 7.7 to 10 kg prior to treatment initiation, were administered a single dose of 300 mg/kg SRP-001 (Calvert Labs/Altasciences, Scott Township, PA USA). On the day of dosing, animals were observed prior to dose administration, approximately 1–3 h post-dose, and once on day 2. Body weights were recorded for all animals prior to dose administration for the preparation of the capsules. Blood for bioanalytical evaluation was collected at selected timepoints on day 1. Following the completion of the study, surviving animals were not euthanized. They were returned to the Calvert colony for an appropriate washout period before possible use in a subsequent study. […] Plasma samples were collected at seven different time points post-dose.

beagle dogs [3] = conditions: dog, in vivo
Procedure: Two beagle dogs (1/sex) were administered 30, 100, 250, or 500 mg/kg SRP-001. […] After a period of at least 2 d (minimum of 44 h) following the previous dose of test article, additional dose levels of SRP-001, as indicated above, were administered by oral gavage to the same 2 dogs (1 male and 1 female). Each dose was based on the dog’s most recent body weight. Mortality/morbidity was observed twice daily and once prior to scheduled sacrifice. Body weights were recorded prior to randomization/selection, prior to each dose administration, and prior to scheduled sacrifice. At scheduled sacrifice, a gross necropsy was performed, and the tissues were appropriately discarded. […] Doses for Phase II of the study were set based on Phase I results. The actual dose amounts selected for Phase II of the study were 0, 30, 100, or 300 mg/kg/d of SRP-001. These doses were administered once daily for seven consecutive days to 1 Beagle dog/sex/dose.

[4] = 7-day repeat-dose oral toxicity and toxicokinetic study, Phase II (non-GLP); format: in vivo; conditions: both sexes, Beagle, dog, in vivo, 300 mg/kg/day, 30, 100, 300 mg/kg/d, days 1 and 7
Procedure: (§1) In Phase II of this study, 0, 30, 100, or 300 mg/kg/d of SRP-001 was administered once daily for seven consecutive days to 1 Beagle dog/sex/dose (Calvert Labs/Altasciences, Scott Township, PA USA). Mortality/morbidity was observed twice daily and once prior to scheduled sacrifice. Clinical observations were evaluated prior to each dose administration and at approximately 1–3 h post-dose and once prior to scheduled sacrifice on day 8. Body weights were recorded on days 1 and 7, and a fasted body weight was recorded prior to scheduled sacrifice on day 8. Food consumption was recorded daily. Blood for evaluation of hematology, coagulation, and clinical chemistry parameters and urine for urinalysis was collected from all animals prior to treatment initiation and from all Phase II animals prior to scheduled sacrifice on day 8. Blood for toxicokinetic evaluation was collected at selected time points on days 1 and 7. Selected tissues were harvested and weighed at necropsy. No microscopic evaluations were performed. […] The clinical observations corroborated with findings of red discoloration in the duodenum of the control group female, the jejunum of the low-dose male, and the colon of both high-dose dogs.
(§2) The reason for this is unclear; however, it may be due to a low sample size (n = 2 per dose group). Half-lives ranged from approximately 1 to 3.5 h and increased with dose and time. […] Based on these observations, SRP-001 was considered to be tolerated at 300 mg/kg when administered once daily for 7 consecutive days. Our toxicokinetic analysis indicates elevated systemic exposures to SRP-001 on Day 1 relative to Day 7. […] A plausible mechanistic explanation for this observed decrease is the induction of metabolic enzymes, likely involving UGT and potentially CYP3A enzymes, as elaborated above and substantiated by previous research. […] The NOAEL exposure parameters align well with the highest SAD dose in the Phase 1 trial, reinforcing the drug's safety profile. The observed PK decrease is not attributed to emesis but likely to enzymatic induction and will be the subject for future investigation.

beagle dogs [5] = assay: as above; format: in vivo
Procedure: as §1, §2

[6] = LC–MS/MS detection of D10-SRP-001 and AM404 in the periaqueductal gray (PAG); format: in vivo, rats; conditions: 32 mg/kg ip, 30 min post-injection, rats with CFA or vehicle
Procedure: Next, we sought to define the uptake of SRP-001 in the nociception area of the brain, the midbrain’s periaqueductal (PAG) area[42],[43]. Thirty min following ip-SRP-001 administration (32 mg/kg), the PAG was harvested and analyzed by LC/MS–MS. D10-SRP-001 was used to match the fragmentation pattern while monitoring analytes.
Deuterated compound D10-SRP-001 was synthesized by Olon Ricerca Bioscience (Concord, OH), and purity was determined to be > 99.9% by HPLC. This was used as pure analytical standard for detection of SRP-001 using an LC–MS/MS method. Similarly, pure analytical standard of AM404 (10 ng/mL) obtained from Cayman Chemical (Ann Arbor, MI) was used to characterize the full fragmentation pattern of AM404. […] Thirty min post-injection, the animals were sacrificed (same as in the CFA/von Frey model), their brains harvested, and the midbrain periaqueductal gray (PAG) region excised. SRP-001 or AM404 were extracted from the PAG using a liquid–liquid extraction method using 1:1 MeOH:H2O for LC–MS/MS and were loaded onto a liquid chromatography-tandem mass spectrophotometer for analysis. The mass spectrophotometer was operated in multiple reaction monitoring (MRM) mode using positive ion electrospray. D10-SRP-001 was detected by monitoring the m/z transition 416 → 186. AM404 was detected by monitoring the m/z transition 396 → 287.

Row | Structure (SMILES) | Dose with toxicity (reduction in the revertant count) ([1]; preliminary toxicity assay, tester strains TA1537 and WP2 uvrA, absence of S9) | Mutagenic response (reverse mutations) ([1]; up to 5000 µg per plate, presence or absence of S9 activation) | Bioavailability (bioanalytical analysis of plasma) (beagle dogs [2]) | Tolerability (beagle dogs [2]) | Gross necropsy (beagle dogs [3]) | Tmax [4] | half-life ([4]; read-out: Half-lives) | AUC and Cmax levels versus dose (beagle dogs [5]; dog, in vivo) | Body weight, food consumption, hematology, clinical chemistry, coagulation parameters (beagle dogs [5]; dog, in vivo) | Clinical signs (beagle dogs [5]; dog, in vivo) | Dose considered to be tolerated (beagle dogs [5]; once daily for 7 consecutive days) | AM404 production in the periaqueductal gray region [6]
1 | CCN(CC)C(=O)c1ccccc1S(=O)(=O)NCC(=O)Nc1ccc(O)cc1 [SRP-001, N,N-diethyl-2-[[2-(4-hydroxyanilino)-2-oxo-ethyl]sulfamoyl]benzamide] | 5000 µg per plate | negative; also recorded: No positive mutagenic responses; also recorded: No positive mutagenic responses were observed with any of the tester strains in either the presence or absence of S9 activation | poor bioavailability | well tolerated | some red discoloration in the GI tract | 0.5 to 1.5 h | 1 to 3.5 h | increased in a dose-dependent manner | No SRP-001-related differences | loose or soft feces and emesis | 300 mg/kg | 
2 | CC(=O)Nc1ccc(O)cc1 [ApAP, acetaminophen, reference compound] |  |  |  |  |  |  |  |  |  |  |  | diminished
